Test results: US20220281779A1, “Fertiliser and/or Soil Improver Composition, Method of Preparation and Method of Use” (Veratin Pty Ltd, priority 2016, published 2022)

Test system: Sceptre wheat
Test: Field wheat trial
Type: in vivo
Conditions: total N applied: nV-2 17 units, Flexi-N and Urea 59 units
Description: A fertiliser and/or soil improver composition (nV-2) is prepared using a method exemplified in Example III, with a sheep wool material (uncleaned and/or containing the fat layer) being deconstructed using a eutectic melt comprising urea:choline chloride at a ratio in the range of from about 7.5:1 to about 4:1, and with the temperature for the deconstruction of wool being in a range of approximately 145-165° C. (or more specifically approximately 145-160° C.). The composition (nV-2) was also prepared at a weight to volume ratio of the wool to eutectic melt in the range of from about 1 g:1 ml to about 1 g:25 ml.
The resultant fertiliser and/or soil improver composition (nV-2) comprises 35% (w/v) of total N (nitrogen) and has pH in the range of pH 5.5-6.5. For the field application, the composition nV-2 was mixed with water (as a carrier) in a ratio of approximately 52 L water to approximately 48 L of nV-2.
The field wheat trial was established as a randomised complete block of 5 treatments and 4 replicates in a single bank with each plot 12 meter long by 2 meter wide.
The effectiveness of the fertiliser and/or soil improver composition nV-2 according to the present invention on plant growth (wheat in this instance) and/or as an organic nitrogen nutrient source, is compared with a commercial inorganic fertiliser (Flexi-N, which is a commercially available fertiliser distributed by the Australian Company CSBP and contains three forms of N—urea, ammonium and nitrate, with a total N concentration of 42%), and with Urea alone (at 46% total N). […]
At 41 and 75 days after sowing, the NDVI was recorded for each plot using a hand-held green-seeker.
At 209 days after sowing, the trial was plot harvested for yield comparisons with grain samples collected from each plot and analysed for quality (protein, moisture, specific weight and screenings) according to industry standards.
All data collected was statistically analysed with the proprietary agricultural field research program ARM® using an Analysis of Variance at a confidence limit of 95%.

NC(N)=O [Urea]
Average crop yield (harvest 209 days after sowing): 7.848
Average crop yield/Unit of N: 0.133
Net crop yield/unit of N: 0.009
